Source: publication PMC5466598, “Synthesis, Chemical Characterization and Multiscale Biological Evaluation of a Dimeric-cRGD Peptide for Targeted Imaging of αVβ3 Integrin Activity” (Scientific Reports, 2017)
Read-outs that look alike come from different tables or passages of the source.

Experiments:
[1] = Biodistribution by gamma well counting at 90 min post-injection; type: in vivo, Lewis rats; conditions: Lewis, rat, iv, total radioactivity, 90 min after intravascular injection
Description: To assess blood clearance and organ uptake dynamic in vivo PET-CT imaging was performed followed by image processing and analysis. Lewis rats (n = 6, Harlan Inc.) were anesthetized with 2% isoflurane, the neck area was shaved and a jugular vein cut-down procedure was performed to insert a PE-50 […] catheter for radiotracer injection. Animals were then placed in supine position on the polyacrylic imaging bed of a small animal dedicated PET-CT scanner (Inveon, Siemens Healthcare, USA). At the time of PET acquisition, animals were injected with ~22.2 MBq of (7) via the jugular vein catheter over 30 s followed by bolus infusion of 0.2 mL sterile saline. Animals underwent 60 min dynamic PET imaging (15% energy window centered at 511 keV) followed by anatomical X-ray CT imaging (80 keV, 500 μA, 100 μm spatial resolution).
For biodistribution studies, all animals were euthanized at 90 min post-injection and selected organ samples were collected for gamma well counting analysis. All collected sections were weighed and the tissue radioactivity was measured with Wizard^2 gamma well counter (Perkin-Elmer, USA). Measured ^64Cu activity was corrected for background, decay time, and tissue weight.

[2] = In vivo stability / metabolism (HPLC of urine and feces); parameters: species or system Lewis rats
Description: Following dynamic PET-CT imaging, both urine and feces samples were collected to assess radiotracer’s metabolism and excretion route. The urine samples were collected at 90 min post injection by manual void, mixed at 1:1 ratio (v/v) with 50% CH3 CN and centrifuged at 5000 rpm. The supernatant was collected, analyzed by HPLC (C18 column, flow 1 mL/min, CH3 OH/H2 O, 5/95, v/v), and chromatograms compared to reference samples of (7) and ^64Cu-acetate. Feces samples were collected at 90 min post injection, suspended in 50% CH3 CN, homogenized and centrifuged at 5000 rpm. The supernatant was filtered and analyzed by RP-HPLC.

α V β 3 receptor = conditions: cited from earlier work; for Kd: comparison values quoted in discussion, no reference given, read-out: binding affinity (Kd); for k off: dissociation from α V β 3 receptor
[3] = target: T1, αVβ3 integrin on human umbilical vein endothelial cells (HUVEC) (human (endogenous in HUVEC)), P06756; assay: radioligand binding; HUVEC pretreated with Mn2+ (20 μM) for 10 min, washed, then (7) 0-100 nM for 1 h at room temperature; gamma well counting; conditions: remark: other sources report otherwise
T1 chain 1: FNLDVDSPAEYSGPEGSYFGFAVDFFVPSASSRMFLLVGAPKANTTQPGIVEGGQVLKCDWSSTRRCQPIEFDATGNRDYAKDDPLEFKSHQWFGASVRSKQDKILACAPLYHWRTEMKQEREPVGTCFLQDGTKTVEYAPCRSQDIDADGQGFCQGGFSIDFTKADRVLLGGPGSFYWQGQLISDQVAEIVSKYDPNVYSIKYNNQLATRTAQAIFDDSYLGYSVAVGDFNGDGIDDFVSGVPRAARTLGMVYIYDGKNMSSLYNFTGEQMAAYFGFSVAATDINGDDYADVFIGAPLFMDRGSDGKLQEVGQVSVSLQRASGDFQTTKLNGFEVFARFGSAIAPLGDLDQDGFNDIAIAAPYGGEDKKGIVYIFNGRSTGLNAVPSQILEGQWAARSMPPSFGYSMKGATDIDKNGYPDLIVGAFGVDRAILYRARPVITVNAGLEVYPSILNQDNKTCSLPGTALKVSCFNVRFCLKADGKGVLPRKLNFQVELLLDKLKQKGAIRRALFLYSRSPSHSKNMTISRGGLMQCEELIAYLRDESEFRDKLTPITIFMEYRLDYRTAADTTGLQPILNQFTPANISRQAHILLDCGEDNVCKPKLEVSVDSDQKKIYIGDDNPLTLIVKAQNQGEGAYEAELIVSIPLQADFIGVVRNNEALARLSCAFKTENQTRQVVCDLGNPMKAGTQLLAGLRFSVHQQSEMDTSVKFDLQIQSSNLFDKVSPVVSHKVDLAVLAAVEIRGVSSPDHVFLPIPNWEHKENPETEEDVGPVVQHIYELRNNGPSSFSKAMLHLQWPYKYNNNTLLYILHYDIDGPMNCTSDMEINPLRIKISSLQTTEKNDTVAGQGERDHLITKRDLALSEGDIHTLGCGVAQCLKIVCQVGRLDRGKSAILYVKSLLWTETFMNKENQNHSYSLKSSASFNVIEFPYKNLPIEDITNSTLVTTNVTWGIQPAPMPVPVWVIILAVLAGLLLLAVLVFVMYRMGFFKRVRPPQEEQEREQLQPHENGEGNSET
T1 chain 2: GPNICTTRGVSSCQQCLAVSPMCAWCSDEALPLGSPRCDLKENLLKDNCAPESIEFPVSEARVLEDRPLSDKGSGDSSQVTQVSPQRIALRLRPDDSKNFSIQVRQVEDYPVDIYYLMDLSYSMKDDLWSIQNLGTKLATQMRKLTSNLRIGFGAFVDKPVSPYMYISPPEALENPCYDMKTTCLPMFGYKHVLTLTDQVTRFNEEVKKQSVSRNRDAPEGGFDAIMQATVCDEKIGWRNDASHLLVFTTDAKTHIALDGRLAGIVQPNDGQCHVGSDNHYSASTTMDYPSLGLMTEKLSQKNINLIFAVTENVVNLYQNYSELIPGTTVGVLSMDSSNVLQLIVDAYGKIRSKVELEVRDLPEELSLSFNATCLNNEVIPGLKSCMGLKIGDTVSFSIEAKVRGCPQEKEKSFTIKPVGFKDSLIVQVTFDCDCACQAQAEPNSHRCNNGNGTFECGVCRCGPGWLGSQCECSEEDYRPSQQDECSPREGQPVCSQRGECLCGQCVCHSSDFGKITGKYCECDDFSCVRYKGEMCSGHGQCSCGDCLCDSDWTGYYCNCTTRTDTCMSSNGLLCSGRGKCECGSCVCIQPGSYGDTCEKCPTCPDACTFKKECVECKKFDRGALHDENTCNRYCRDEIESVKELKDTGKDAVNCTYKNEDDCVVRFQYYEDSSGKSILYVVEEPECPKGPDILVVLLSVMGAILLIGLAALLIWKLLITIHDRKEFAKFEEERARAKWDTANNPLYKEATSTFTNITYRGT

[4] = target: T1, αVβ3 integrin on human umbilical vein …; assay: flow cytometry on cells; HUVEC pretreated with Mn2+ (20 μM) for 10 min, washed, then (8) 0-200 nM for 1 h at room temperature; conditions: remark: other sources report otherwise

Question: For N=C(N)NCCC[C@@H]1NC(=O)[C@H](CCCCNC(=O)COCCOCCn2cc(CNC(=O)CC[C@H](NC(=O)CCOCCOCCOCCOCCNC(=S)Nc3ccc(CC4CN(CC(=O)O)CCN(CC(=O)O)CCN4CC(=O)O)cc3)C(=O)NCc3cn(CCOCCOCC(=O)NCCCC[C@@H]4NC(=O)[C@@H](Cc5ccccc5)NC(=O)[C@H](CC(=O)O)NC(=O)CNC(=O)[C@H](CCCNC(=N)N)NC4=O)nn3)nn2)NC(=O)[C@@H](Cc2ccccc2)NC(=O)[C@H](CC(=O)O)NC(=O)CNC1=O (stereo partly shown) [compound 7], which tissue uptake at […] ([1]; intestines, read-out: uptake in intestines) is on record?
Answer: 4.62 ± 0.24 %ID/g

Question: And the tissue uptake at […] ([1]; kidney cortex, read-out: uptake in kidney cortex)?
Answer: 11.1 ± 2.2 %ID/g

Question: And the tissue uptake at […] ([1]; kidney medulla, read-out: uptake in kidney medulla)?
Answer: 3.66 ± 0.4 %ID/g

Question: And the tissue uptake at […] ([1]; lungs, read-out: uptake in lungs)?
Answer: 2.95 ± 0.43 %ID/g

Question: And the tissue uptake at […] ([1]; spleen, read-out: uptake in spleen)?
Answer: 2.25 ± 0.33 %ID/g

Question: What about the “activity in the feces” value ([2]; feces collected at 90 min post injection, RP-HPLC) of the same molecule?
Answer: no detectable activity

Question: What about the “fraction remaining intact in the urine” value ([2]; urine collected at 90 min post injection, HPLC) of the same molecule?
Answer: more than 90%

Question: For fibrinogen, which Kd (α V β 3 receptor) is on record?
Answer: 27 nM

Question: And the k off (α V β 3 receptor)?
Answer: 0.00098 s⁻¹

Question: For vibronectin: classical adhesive protein, which Kd (α V β 3 receptor) is on record?
Answer: 64 nM

Question: What about the k off (α V β 3 receptor) of the same molecule?
Answer: 0.00021 s⁻¹

B1: 64Cu-NOTA-PEG4-cRGD2 (7) (peptide)
chain: cyclo(RGDFK)
modifications: also: cyclic RGD dimer: each peptide via N3-PEG2 triazole on Glu bis-propargyl amide, PEG4, NOTA, 64Cu
Question: With B1 as the molecule, how does the increase of binding against HUVECs without Mn2+ [3] read?
Answer: 78%

B2: FITC-PEG4-cRGD2 (8) (peptide)
chain: cyclo(RGDFK)
modifications: also: cyclic RGD dimer: each peptide via N3-PEG2 triazole on Glu bis-propargyl amide, PEG4, fluorescein (from FITC)
Question: For B2, which increase of binding against HUVECs without Mn2+ [4] is on record?
Answer: 78%
